Measurements from US20250129121A1, “POLYPEPTIDE, PRODUCT INCLUDING POLYPEPTIDE FOR INHIBITING FUSOBACTERIUM NUCLEATUM, OR DRUG FOR PREVENTING COLORECTAL CANCER” (priority 2022, published 2025).
Converted amounts (≈) assume the structure as drawn. Where a SMILES comes first, the peptide text is derived from it.

Experiments:
[1] = system: Lactobacillus rhamnosus 6141; format: cell-based; conditions: 20 h
Procedure: (§1) A. Each polypeptide was prepared into a specified stock solution for later use. Minimum inhibitory concentrations (MICs) of the polypeptides P1 to P12 were determined by a broth microdilution method. With 0.01% acetic acid (including 0.2% of bovine serum albumin (BSA)) as a diluent, a series of gradient antimicrobial peptide solutions were prepared by a two-fold dilution method.
(§2) B. 100 μL of each polypeptide stock solution was taken and added to a 96-well cell culture plate, and then each strain solution to be tested (about 10^5/mL) was added in an equal volume to each well. A positive control (including a strain solution, but not including a polypeptide) and a negative control (including neither a strain solution nor a polypeptide). Strains to be tested include Escherichia coli Nissile 1917, Vibrio cholerae H1, Pseudomonas aeruginosa PAO1, F. nucleatum 25586, F. nucleatum 10953, Bifidobacterium uniformis 6597, Lactobacillus acidophilus 6075, Bifidobacterium longum 6194Lactobacillus rhamnosus 6141, and Streptococcus agalactiae H94.
(§3) C. The cell culture plate was incubated at a constant temperature of 37° C. for 20 h, and MIC was recorded when the turbidity was not observed by naked eyes at a bottom of a well. The strains all were purchased from the market.

[2] = system: Streptococcus agalactiae H94; format: cell-based; conditions: H94, 20 h
Procedure: as §1, §2, §3

[3] = system: Lactobacillus acidophilus 6075; format: cell-based; conditions: 20 h
Procedure: as §1, §2, §3

[4] = system: Escherichia coli Nissile 1917; format: cell-based; conditions: Nissile 1917, 20 h
Procedure: as §1, §2, §3

[5] = system: Bifidobacterium uniformis 6597; format: cell-based; conditions: 20 h
Procedure: as §1, §2, §3

[6] = system: Bifidobacterium longum 6194; format: cell-based; conditions: 20 h
Procedure: as §1, §2, §3

[7] = system: Pseudomonas aeruginosa PAO1; format: cell-based; conditions: PAO1, 20 h
Procedure: as §1, §2, §3

[8] = system: F. nucleatum-induced colorectal cancer; assay: F. nucleatum-enhanced colorectal cancer animal model; format: in vivo, C57BL APC^min mouse; conditions: 20 mg/kg per day intragastrically for 7 d, compared with Fn+H2O group
From the text: A. To verify the antibacterial effects of the F. nucleatum-specific antimicrobial peptides in vivo for F. nucleatum and especially the preventive effects of the F. nucleatum-specific antimicrobial peptides for F. nucleatum-induced diseases, an F. nucleatum-enhanced colorectal cancer animal model (i.e. the C57BL APC^min mouse orally administered with F. nucleatum) was adopted in this example. As shown in FIG. 20: C57BL APC^min mice were selected and intragastrically administered with F. nucleatum 25586 three times a week as an F. nucleatum intragastric administration group. Mice in a control group were intragastrically administered with an equal amount of PBS every week (PBS intragastric administration group). On the second day of intragastric administration in the first week, mice each were treated with 2.5% dextran sulfate sodium (DSS) consecutively for 3 d to improve the colonization of F. nucleatum. B. Mice were intragastrically administered with the antimicrobial peptide P8 or P11 for treatment in the sixth week, and mice in the control group were intragastrically administered with pure water. Each mouse was intragastrically administered at 20 mg/kg per day consecutively for 7 d. Then, mice were euthanized, and the tumor number and size were recorded.

[9] = system: F. nucleatum 10953; format: cell-based, Fusobacterium nucleatum; conditions: 10953, 20 h
Procedure: as §1, §2, §3

[10] = system: F. nucleatum 25586; format: cell-based, Fusobacterium nucleatum; conditions: 25586, 20 h
Procedure: as §1, §2, §3

[11] = system: other strains; assay: Antimicrobial activity against strains other than F. nucleatum (bactericidal specificity); format: cell-based; conditions: test strains other than F. nucleatum
Procedure: as §1, §2, §3

Row | SMILES | MIC Lactobacterium rhamnosus 6141 [1] [µM] | MIC Streptococcus agalactiae H94 [2] [µM] | MIC Lactobacillus acidophilus 6075 [3] [µM] | MIC Escherichia coli nissile1917 [4] [µM] | MIC Bifidobacteriu muniformis 6597 [5] [µM] | MIC Bifidobacterium longum 6194 [6] [µM] | MIC Pseudomonas aeruginosa PAO1 [7] [µM] | tumor diameter [8] | tumor number [8] | MIC Fusobacterium nucleatum 10953 [9] [µM] | MIC Fusobacterium nucleatum 25586 [10] [µM] | antimicrobial activity against other strains [11]
1 | N=C(N)NCCC[C@H](NC(=O)CNC(=O)[C@@H]1CCCN1C(=O)[C@H](CCCNC(=N)N)NC(=O)[C@H](Cc1c[nH]c2ccccc12)NC(=O)[C@H](Cc1c[nH]cn1)NC(=O)[C@H](Cc1c[nH]c2ccccc12)NC(=O)[C@H](CCCNC(=N)N)NC(=O)[C@H](Cc1c[nH]c2ccccc12)NC(=O)[C@H](Cc1c[nH]cn1)NC(=O)[C@@H](N)Cc1c[nH]c2ccccc12)C(=O)N[C@@H](Cc1c[nH]c2ccccc12)C(=O)N[C@@H](Cc1c[nH]cn1)C(=O)N[C@@H](Cc1c[nH]c2ccccc12)C(=O)N[C@@H](CCCNC(=N)N)C(=O)N[C@@H](Cc1c[nH]c2ccccc12)C(=O)N[C@@H](Cc1c[nH]cn1)C(=O)N[C@@H](Cc1c[nH]c2ccccc12)C(=O)O [P8, WHWRWHWRPGRWHWRWHW] (H-WHWRWHWRPGRWHWRWHW-OH; N-terminus assumed) | >64 | >64 | 32 (≈ 90.7 µg/mL) | >64 | >64 | >64 | >64 | relatively small | relatively small | 4 (≈ 11.3 µg/mL) | 8 (≈ 22.7 µg/mL) | weak antimicrobial activity
2 | N=C(N)NCCC[C@H](NC(=O)CNC(=O)[C@@H]1CCCN1C(=O)[C@H](CCCNC(=N)N)NC(=O)[C@H](Cc1c[nH]c2ccccc12)NC(=O)[C@H](Cc1c[nH]cn1)NC(=O)[C@H](Cc1c[nH]c2ccccc12)NC(=O)[C@H](Cc1c[nH]c2ccccc12)NC(=O)[C@H](Cc1c[nH]cn1)NC(=O)[C@H](Cc1c[nH]c2ccccc12)NC(=O)[C@H](CCCNC(=N)N)NC(=O)CNC(=O)[C@@H]1CCCN1C(=O)[C@H](CCCNC(=N)N)NC(=O)[C@H](Cc1c[nH]c2ccccc12)NC(=O)[C@H](Cc1c[nH]cn1)NC(=O)[C@@H](N)Cc1c[nH]c2ccccc12)C(=O)N[C@@H](Cc1c[nH]c2ccccc12)C(=O)N[C@@H](Cc1c[nH]cn1)C(=O)N[C@@H](Cc1c[nH]c2ccccc12)C(=O)O [P9] (H-WHWRPGRWHWWHWRPGRWHW-OH; N-terminus assumed) | >64 | >64 | 64 (≈ 191 µg/mL) | >64 | >64 | 64 (≈ 191 µg/mL) | >64 |  |  | 64 (≈ 191 µg/mL) | 64 (≈ 191 µg/mL) | 
3 | N=C(N)NCCC[C@H](NC(=O)CNC(=O)[C@@H]1CCCN1C(=O)[C@H](CCCNC(=N)N)NC(=O)[C@H](Cc1c[nH]c2ccccc12)NC(=O)[C@H](CCCCN)NC(=O)[C@@H](N)Cc1c[nH]c2ccccc12)C(=O)N[C@@H](Cc1c[nH]c2ccccc12)C(=O)N[C@@H](CCCCN)C(=O)N[C@@H](Cc1c[nH]c2ccccc12)C(=O)O [P10, WKWRPGRWKW] (H-WKWRPGRWKW-OH; N-terminus assumed) | >64 | >64 | 64 (≈ 95.1 µg/mL) | 64 (≈ 95.1 µg/mL) | 64 (≈ 95.1 µg/mL) | >64 | >64 |  |  | 16 (≈ 23.8 µg/mL) | 8 (≈ 11.9 µg/mL) | 
4 | N=C(N)NCCC[C@H](NC(=O)CNC(=O)[C@@H]1CCCN1C(=O)[C@H](CCCNC(=N)N)NC(=O)[C@H](Cc1c[nH]c2ccccc12)NC(=O)[C@H](CCCCN)NC(=O)[C@H](Cc1c[nH]c2ccccc12)NC(=O)[C@H](CCCNC(=N)N)NC(=O)[C@H](Cc1c[nH]c2ccccc12)NC(=O)[C@H](CCCCN)NC(=O)[C@@H](N)Cc1c[nH]c2ccccc12)C(=O)N[C@@H](Cc1c[nH]c2ccccc12)C(=O)N[C@@H](CCCCN)C(=O)N[C@@H](Cc1c[nH]c2ccccc12)C(=O)N[C@@H](CCCNC(=N)N)C(=O)N[C@@H](Cc1c[nH]c2ccccc12)C(=O)N[C@@H](CCCCN)C(=O)N[C@@H](Cc1c[nH]c2ccccc12)C(=O)O [P11, WKWRWKWRPGRWKWRWKW] (H-WKWRWKWRPGRWKWRWKW-OH; N-terminus assumed) | >64 | 64 (≈ 179 µg/mL) | 32 (≈ 89.6 µg/mL) | 64 (≈ 179 µg/mL) | 8 (≈ 22.4 µg/mL) | 16 (≈ 44.8 µg/mL) | 32 (≈ 89.6 µg/mL) | relatively small | relatively small | 16 (≈ 44.8 µg/mL) | 4 (≈ 11.2 µg/mL) | weak antimicrobial activity
5 | N=C(N)NCCC[C@H](NC(=O)CNC(=O)[C@@H]1CCCN1C(=O)[C@H](CCCNC(=N)N)NC(=O)[C@H](Cc1c[nH]c2ccccc12)NC(=O)[C@H](CCCCN)NC(=O)[C@H](Cc1c[nH]c2ccccc12)NC(=O)[C@H](Cc1c[nH]c2ccccc12)NC(=O)[C@H](CCCCN)NC(=O)[C@H](Cc1c[nH]c2ccccc12)NC(=O)[C@H](CCCNC(=N)N)NC(=O)CNC(=O)[C@@H]1CCCN1C(=O)[C@H](CCCNC(=N)N)NC(=O)[C@H](Cc1c[nH]c2ccccc12)NC(=O)[C@H](CCCCN)NC(=O)[C@@H](N)Cc1c[nH]c2ccccc12)C(=O)N[C@@H](Cc1c[nH]c2ccccc12)C(=O)N[C@@H](CCCCN)C(=O)N[C@@H](Cc1c[nH]c2ccccc12)C(=O)O [P12] (H-WKWRPGRWKWWKWRPGRWKW-OH; N-terminus assumed) | >64 | 2 (≈ 5.91 µg/mL) | 32 (≈ 94.5 µg/mL) | 32 (≈ 94.5 µg/mL) | 64 (≈ 189 µg/mL) | 16 (≈ 47.3 µg/mL) | 32 (≈ 94.5 µg/mL) |  |  | 2 (≈ 5.91 µg/mL) | 2 (≈ 5.91 µg/mL) | 
